Test results from ChEMBL document CHEMBL1201862, “PubChem BioAssay data set” (2004).
“And” between values parts separate entries of the source, which are not always exact repeats. Equal entries are not always repeated.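 Values below derive from 48-hour exposures of cells grown in 96-well plates, with endpoints linearly interpolated between the two concentrations bracketing the appropriate inhibition level. The concentration for 50% growth inhibition is given as GI50.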 The source made the active and inactive calls. Cut-off read from the data, not from the text of the source: active = GI50 up to about 1.1 µM and inactive = higher.

Assays:
Assay in all cases: NCI-60 cell line screen, 48 h
[1] = system: UO-31
[2] = system: MDA-MB-435
[3] = system: RXF 393
[4] = system: CAKI-1
[5] = system: TK-10
[6] = system: OVCAR-3
[7] = system: SN12C
[8] = system: SF-539
[9] = system: SK-MEL-28
[10] = system: SK-MEL-2
[11] = system: NCI-H23
[12] = system: LOX IMVI
[13] = system: SF-295
[14] = system: 786-0
[15] = system: NCI-H226
[16] = system: NCI-H522
[17] = system: EKVX
[18] = system: CCRF-CEM
[19] = system: MOLT-4
[20] = system: HOP-92

SMILES | GI50 [1] | GI50 [2] | GI50 [3] | GI50 [4] | GI50 [5] | GI50 [6] | GI50 [7] | GI50 [8] | GI50 [9] | GI50 [10] | GI50 [11] | GI50 [12] | GI50 [13] | GI50 [14] | GI50 [15] | GI50 [16] | GI50 [17] | GI50 [18] | GI50 [19] | GI50 [20]
COC1OC(COC(=O)NCCCCC(=O)C(F)(F)C(F)(F)C(F)(F)C(F)(F)C(F)(F)C(F)(F)C(F)(F)F)C(O)C(O)C1O (stereo not drawn) | 16.8 µM (inactive) and 17.1 µM (inactive) | 15.8 µM (inactive) and 16.6 µM (inactive) | 13.6 µM (inactive) and 15.1 µM (inactive) | 16.4 µM (inactive) and 17.2 µM (inactive) | 16.9 µM (inactive) and 16.4 µM (inactive) | 15.5 µM (inactive) and 14.9 µM (inactive) | 19.6 µM (inactive) and 21.4 µM (inactive) | 18 µM (inactive) and 15.5 µM (inactive) | 17.3 µM (inactive) and 16.7 µM (inactive) | 22.2 µM (inactive) and 21.8 µM (inactive) | 14.8 µM (inactive) and 17.8 µM (inactive) | 14.2 µM (inactive) and 15.9 µM (inactive) | 20.7 µM (inactive) and 19.5 µM (inactive) | 16.4 µM (inactive) and 16.5 µM (inactive) |  |  |  |  |  | 
CN(C)NC1=C([N+](=O)[O-])C=NN(c2ccccc2)C1 | 1.79 µM (inactive) |  | 1.93 µM (inactive) | 1.95 µM (inactive) | 3.19 µM (inactive) | 1.85 µM (inactive) | 1.76 µM (inactive) | 1.89 µM (inactive) | 1.81 µM (inactive) | 1.71 µM (inactive) | 1.87 µM (inactive) | 1.59 µM (inactive) | 1.81 µM (inactive) | 1.77 µM (inactive) | 3.84 µM (inactive) | 0.177 µM (active) | 1.75 µM (inactive) | 1.79 µM (inactive) | 2.09 µM (inactive) | 2.02 µM (inactive)
O=C(c1nc2ccc(Cl)cc2[nH]c1=O)C(O)c1ccco1 (stereo not drawn) | 42.9 µM (inactive) |  | > 100 µM (inactive) | 53 µM (inactive) | > 100 µM (inactive) | 46 µM (inactive) |  | 38.1 µM (inactive) | > 100 µM (inactive) | 87.1 µM (inactive) | > 100 µM (inactive) | 36.6 µM (inactive) | > 100 µM (inactive) | > 100 µM (inactive) | > 100 µM (inactive) | 1.9 µM (inactive) | > 100 µM (inactive) | 1.37 µM (inactive) | 8.57 µM (inactive) | > 100 µM (inactive)
COc1cccc2c1CCc1sc(CN3CCN(C)CC3)nc1-2 | > 100 µM (inactive) | 63.5 µM (inactive) | 6.84 µM (inactive) | > 100 µM (inactive) | > 100 µM (inactive) | > 100 µM (inactive) | > 100 µM (inactive) |  | 49.7 µM (inactive) | > 100 µM (inactive) | 84.7 µM (inactive) |  | 53 µM (inactive) | 78.5 µM (inactive) | 59.8 µM (inactive) | 52.2 µM (inactive) | > 100 µM (inactive) | 24.9 µM (inactive) | 22.4 µM (inactive) | 
O=C1C=Cc2c1csc2Br | 24.2 µM (inactive) | 32.1 µM (inactive) | 71.4 µM (inactive) | > 100 µM (inactive) | 65 µM (inactive) | 71 µM (inactive) | > 100 µM (inactive) |  | 63.1 µM (inactive) | > 100 µM (inactive) | 33 µM (inactive) | 25.5 µM (inactive) | > 100 µM (inactive) | 25.8 µM (inactive) |  | 18.7 µM (inactive) | 87.5 µM (inactive) | 16.9 µM (inactive) | 21.3 µM (inactive) | 
COc1cc(Br)c(/C=N/N=C(\N)NO)cc1OC | 20.3 µM (inactive) |  | 21.9 µM (inactive) | 14.7 µM (inactive) | 7.69 µM (inactive) | 33.2 µM (inactive) | 24.6 µM (inactive) | 24.7 µM (inactive) | 17.5 µM (inactive) | 26.1 µM (inactive) | 26 µM (inactive) | 17.6 µM (inactive) | 28.5 µM (inactive) | 18.4 µM (inactive) | 10.9 µM (inactive) | 15.2 µM (inactive) | 7.21 µM (inactive) | 30.1 µM (inactive) | 57.1 µM (inactive) | 23.6 µM (inactive)
C=C=C(C(=O)OC)[S+]([O-])c1ccc([N+](=O)[O-])cc1[N+](=O)[O-] (stereo not drawn) | 43.4 µM (inactive) |  | 30.7 µM (inactive) | 25.9 µM (inactive) | 46 µM (inactive) | 25.3 µM (inactive) | 22.4 µM (inactive) | 26.1 µM (inactive) | 34.7 µM (inactive) | 44.5 µM (inactive) | 53.8 µM (inactive) | 21.5 µM (inactive) | > 92.7 µM (inactive) | 39.7 µM (inactive) | 54.6 µM (inactive) | 14.2 µM (inactive) | > 100 µM (inactive) | 12 µM (inactive) | 20.7 µM (inactive) | 18.6 µM (inactive)
Cc1cc([N+](=O)[O-])c(S(=O)(=O)c2ccccc2)c([N+](=O)[O-])c1 | 16.9 µM (inactive) |  | 2.2 µM (inactive) | 3.62 µM (inactive) | 17.9 µM (inactive) | 5.62 µM (inactive) | 4.43 µM (inactive) | 12.7 µM (inactive) | 18.9 µM (inactive) | 20 µM (inactive) | 8.53 µM (inactive) | 2.57 µM (inactive) | 18.8 µM (inactive) | 3.95 µM (inactive) | 12.2 µM (inactive) | 1.73 µM (inactive) | 24.2 µM (inactive) | 3.52 µM (inactive) | 3.39 µM (inactive) | 2.43 µM (inactive)
Cn1c2ccccc2c(=O)c2cccc(C(=O)NC(CCC(N)=O)C(=O)O)c21 (stereo not drawn) | > 10 µM (inactive) | > 100 µM (inactive) |  | > 100 µM (inactive) | > 100 µM (inactive) | > 100 µM (inactive) | > 100 µM (inactive) | > 100 µM (inactive) | > 100 µM (inactive) | > 100 µM (inactive) | > 100 µM (inactive) | > 100 µM (inactive) | > 100 µM (inactive) | > 100 µM (inactive) | > 100 µM (inactive) |  | > 100 µM (inactive) |  | > 100 µM (inactive) | 
S=C1OC2C3C4CC5C3C(O1)C1C5C4C21 (stereo not drawn) | > 100 µM (inactive) |  | > 100 µM (inactive) | > 100 µM (inactive) | > 100 µM (inactive) | > 100 µM (inactive) | > 100 µM (inactive) | > 100 µM (inactive) | > 100 µM (inactive) |  |  | 74 µM (inactive) | > 100 µM (inactive) | > 100 µM (inactive) | > 100 µM (inactive) | > 100 µM (inactive) | > 100 µM (inactive) | > 100 µM (inactive) | > 100 µM (inactive) | > 100 µM (inactive)
COc1ccc(C2=C[C@]3(O)CCCN3C[C@@H]2c2ccc(OC)c(OC)c2)cc1 | < 0.0001 µM (active) |  | > 0.01 µM (active) | < 0.0001 µM (active) | < 0.0001 µM (active) | < 0.0001 µM (active) | < 0.0001 µM (active) | < 0.0001 µM (active) | < 0.0001 µM (active) | < 0.0001 µM (active) | < 0.0001 µM (active) | < 0.0001 µM (active) | < 0.0001 µM (active) | < 0.0001 µM (active) | < 0.0001 µM (active) | < 0.0001 µM (active) | < 0.0001 µM (active) | < 0.0001 µM (active) | < 0.0001 µM (active) | < 0.0001 µM (active)
O=C(O)/C=C\C(=O)c1ccc(Cl)cc1 | 33.9 µM (inactive) |  | 21.5 µM (inactive) | 24.7 µM (inactive) | 40.5 µM (inactive) | 28.8 µM (inactive) | 51.9 µM (inactive) | 25.1 µM (inactive) | 18.7 µM (inactive) | 28.6 µM (inactive) | 31.8 µM (inactive) | 24.9 µM (inactive) | > 100 µM (inactive) | 28.9 µM (inactive) | > 55.8 µM (inactive) | > 100 µM (inactive) | > 56.4 µM (inactive) | 20 µM (inactive) | 24.7 µM (inactive) | 24.5 µM (inactive)
CN(C)c1ccc2c(c1)C(=O)N(OS(=O)(=O)c1ccc([N+](=O)[O-])cc1)C2=O | 23.1 µM (inactive) |  | 13.9 µM (inactive) | 22.4 µM (inactive) | 59 µM (inactive) | > 10 µM (inactive) | 22.5 µM (inactive) | 17.6 µM (inactive) | 26.1 µM (inactive) | 29.2 µM (inactive) | 26.2 µM (inactive) |  | 25.2 µM (inactive) | 19.3 µM (inactive) | 72.8 µM (inactive) | 15 µM (inactive) | 42.7 µM (inactive) | 18.7 µM (inactive) |  | > 10 µM (inactive)
O=C(O)CSc1nnc(-c2ccco2)[nH]1 | > 100 µM (inactive) |  | > 100 µM (inactive) | > 100 µM (inactive) | > 100 µM (inactive) | > 100 µM (inactive) | > 100 µM (inactive) | > 100 µM (inactive) | > 100 µM (inactive) | > 100 µM (inactive) | > 100 µM (inactive) | > 100 µM (inactive) | > 100 µM (inactive) | > 100 µM (inactive) | > 100 µM (inactive) | > 100 µM (inactive) | > 100 µM (inactive) | > 100 µM (inactive) | > 100 µM (inactive) | > 100 µM (inactive)
[O-][S+]1CSCS1 (stereo not drawn) | > 100 µM (inactive) |  | > 100 µM (inactive) | > 100 µM (inactive) | > 100 µM (inactive) | > 100 µM (inactive) | > 100 µM (inactive) | > 100 µM (inactive) | > 100 µM (inactive) | > 100 µM (inactive) | > 100 µM (inactive) | > 100 µM (inactive) | > 100 µM (inactive) | > 100 µM (inactive) | > 100 µM (inactive) | > 100 µM (inactive) | > 100 µM (inactive) | > 100 µM (inactive) | > 100 µM (inactive) | > 100 µM (inactive)
